Assay results as given in article PMC8618034, “In Silico Structure-Guided Optimization and Molecular Simulation Studies of 3-Phenoxy-4-(3-trifluoromethylphenyl)pyridazines as Potent Phytoene Desaturase Inhibitors” (Molecules, 2021).
Where two headings read alike, the source gives them in different places.

Molecular target: T1, Synechococcus PDS (phytoene desaturase) (Synechococcus elongatus, UniProt P26294)
T1 construct: recombinant, pET15b-Synechococcus PDS
Experiment: SPR (Biacore 8K, protein immobilized on CM5 chip)
Format: binding

T1 sequence (P26294 whole entry): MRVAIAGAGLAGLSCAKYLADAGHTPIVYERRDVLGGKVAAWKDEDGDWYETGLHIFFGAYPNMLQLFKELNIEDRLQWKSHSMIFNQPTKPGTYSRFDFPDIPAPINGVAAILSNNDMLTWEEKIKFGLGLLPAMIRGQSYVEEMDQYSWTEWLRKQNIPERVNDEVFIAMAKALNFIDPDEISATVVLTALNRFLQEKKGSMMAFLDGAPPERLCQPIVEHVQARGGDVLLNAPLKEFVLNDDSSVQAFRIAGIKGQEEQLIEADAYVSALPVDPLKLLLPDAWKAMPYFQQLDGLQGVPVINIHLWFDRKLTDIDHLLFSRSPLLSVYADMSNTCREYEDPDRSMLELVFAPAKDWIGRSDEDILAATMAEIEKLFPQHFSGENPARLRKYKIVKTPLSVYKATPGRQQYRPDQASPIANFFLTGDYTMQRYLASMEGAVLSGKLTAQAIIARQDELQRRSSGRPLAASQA

Row | SMILES | Kd (read-out: Kd) | Kd
1 | CCc1cc(-c2cccc(C(F)(F)F)c2)c(Oc2cc(F)c(F)c(F)c2)nn1 [3h, 6-ethyl-4-(3-(trifluoromethyl)phenyl)-3-(3,4,5-trifluorophenoxy)pyridazine] | 63.2 µM | –
2 | O=C(Nc1ccc(F)cc1F)c1cccnc1Oc1cccc(C(F)(F)F)c1 [diflufenican] | – | 70.8 µM
3 | Cc1cc(-c2cccc(C(F)(F)F)c2)c(Oc2ccc(C(F)(F)F)cc2)nn1 [2a, 6-methyl-3-(4-(trifluoromethyl)phenoxy)-4-(3(trifluoromethyl)phenyl)pyridazine] | 7.08 µM | –
4 | Cc1cc(-c2cccc(C(F)(F)F)c2)c(Oc2ccc(C#N)cc2)nn1 [compound 1] | 43.5 µM | –
